Results: patent publication US11945768B1, “8-(3-flurobenzylideneamino)naphthalene-1,3-disulfonic acid as an antioxidant compound” (KING FAISAL UNIVERSITY, priority 2023, dated 2024)

Assay: DPPH radical scavenging antioxidant test (in vitro)
Type: biochemical
Details: 517 nm; for Inhibition (radical scavenging inhibition): 0.2 mL DPPH (0.75 mM), compound 3 μM in ethanol, 30 minutes incubation in the dark
Protocol: The antioxidant properties of the 8-(3-flurobenzylideneamino)naphthalene-1,3-disulfonic acid compound were studied by adding 0.2 mL DPPH (0.75 mM)) 8-(3-flurobenzylideneamino)naphthalene-1,3-disulfonic acid (III) (3 μM) in ethanol. After 30 minutes of incubation in the dark, the absorbance was read against a blank at 517 nm. Ascorbic acid (vitamin C) was used as standard antioxidants (positive control). A blank sample was prepared by 0.2 ml of DPPH in 3 mL ethanol. A negative control sample was run using ethanol instead of the sample. The radical scavenging inhibition was calculated using the following equation: […]
The antioxidant activity for the synthesized compound is listed in Table 1, using Vitamin C as a reference.

| Structure (SMILES) | Inhibition (radical scavenging inhibition) | antioxidant potential in DPPH test compared to vitamin C (in words) (DPPH in vitro test, vitamin C as positive control) |
| --- | --- | --- |
| O=S(=O)(O)c1cc(S(=O)(=O)O)c2c(/N=C/c3cccc(F)c3)cccc2c1 [Product III, 8-(3-flurobenzylideneamino)naphthalene-1,3-disulfonic acid] | 52% | high potential as an antioxidant compared to vitamin C |
| O=C1O[C@H]([C@@H](O)CO)C(O)=C1O [vit c, Ascorbic acid, reference compound] | 74% |  |
